Measurements published in US10208040B2, “Fused imidazo-piperidine JAK inhibitors” (THERAVANCE BIOPHARMA R&D IP, LLC, priority 2017, dated 2019).

Tests used:
[1] = target: JAK2 (Homo sapiens (Human), UniProt O60674); assay: Biochemical JAK kinase assay (LanthaScreen), JAK2
Procedure: (§1) A panel of four LanthaScreen JAK biochemical assays (JAK1, 2, 3 and Tyk2) were carried in a common kinase reaction buffer (50 mM HEPES, pH 7.5, 0.01% Brij-35, 10 mM MgCl2, and 1 mM EGTA). Recombinant GST-tagged JAK enzymes and a GFP-tagged STAT1 peptide substrate were obtained from Life Technologies.
(§2) Serially diluted compounds were pre-incubated with each of the four JAK enzymes and the substrate in white 384-well microplates (Corning) at ambient temperature for 1 h. ATP was subsequently added to initiate the kinase reactions in 10 μL total volume, with 1% DMSO. […] The plates were allowed to incubate at ambient temperature for 1 h before being read on the EnVision reader (Perkin Elmer).
(§3) For dose-response analysis, percent inhibition data were plotted vs. compound concentrations, and IC50 values were determined from a 4-parameter robust fit model with the Prism software (GraphPad Software). Results were expressed as pIC50 (negative logarithm of IC50) and subsequently converted to pKi (negative logarithm of dissociation constant, Ki) using the Cheng-Prusoff equation.

[2] = target: JAK1 (Homo sapiens (Human), UniProt P23458); assay: Biochemical JAK kinase assay (LanthaScreen), JAK1
Procedure: as §1, §2, §3

[3] = target: JAK3 (Homo sapiens (Human), UniProt P52333); assay: Biochemical JAK kinase assay (LanthaScreen), JAK3
Procedure: as §1, §2, §3

[4] = target: Tyk2 (Homo sapiens (Human), UniProt P29597); assay: Biochemical JAK kinase assay (LanthaScreen), Tyk2
Procedure: as §1, §2, §3

[5] = tested on: IL-13 induced STAT6 phosphorylation in BEAS-2B human lung epithelial cells; assay: Cellular JAKI potency assay (AlphaScreen, BEAS-2B); assay type: cell-based; conditions: BEAS-2B cells
Procedure: The AlphaScreen JAKI cellular potency assay was carried out by measuring interleukin-13 (IL-13, R&D Systems) induced STAT6 phosphorylation in BEAS-2B human lung epithelial cells (ATCC). The anti-STAT6 antibody (Cell Signaling Technologies) was conjugated to AlphaScreen acceptor beads (Perkin Elmer), while the anti-pSTAT6 (pTyr641) antibody (Cell Signaling Technologies) was biotinylated using EZ-Link Sulfo-NHS-Biotin (Thermo Scientific).
BEAS-2B cells were grown at 37° C. in a 5% CO2 humidified incubator in 50% DMEM/50% F-12 medium (Life Technologies) supplemented with 10% FBS (Hyclone), 100 U/mL penicillin, 100 μg/mL streptomycin (Life Technologies), and 2 mM GlutaMAX (Life Technologies). On day 1 of the assay, cells were seeded at a 7,500 cells/well density in white poly-D-lysine-coated 384-well plates (Corning) with 25 μL medium, and were allowed to adhere overnight in the incubator. On day 2 of the assay, the medium was removed and replaced with 12 μL of assay buffer (Hank's Balanced Salt Solution/HBSS, 25 mM HEPES, and 1 mg/ml bovine serum albumin/BSA) containing dose-responses of test compounds. Compounds were serially diluted in DMSO and then diluted another 1000-fold in media to bring the final DMSO concentration to 0.1%. Cells were incubated with test compounds at 37° C. for 1 h, and followed by the addition of 12 μl of pre-warmed IL-13 (80 ng/mL in assay buffer) for stimulation. After incubating at 37° C. for 30 min, the assay buffer (containing compound and IL-13) was removed, and 10 μL of cell lysis buffer (25 mM HEPES, 0.1% SDS, 1% NP-40, 5 mM MgCl2, 1.3 mM EDTA, 1 mM EGTA, and supplement with Complete Ultra mini protease inhibitors and PhosSTOP from Roche Diagnostics). The plates were shaken at ambient temperature for 30 min before the addition of detection reagents. A mixture of biotin-anti-pSTAT6 and anti-STAT6 conjugated acceptor beads was added first and incubated at ambient temperature for 2 h, followed by the addition of streptavidin conjugated donor beads (Perkin Elmer). After a minimum of 2 h incubation, the assay plates were read on the EnVision plate reader. AlphaScreen luminescence signals were recorded and utilized to calculate the percent inhibition values based on DMSO and background controls.
For dose-response analysis, percent inhibition data were plotted vs. compound concentrations, and IC50 values were determined from a 4-parameter robust fit model with the Prism software. Results may also be expressed as the negative logarithm of the IC50 value, pIC50.
Test compounds having a lower IC50 value or higher pIC50 value in this assay show greater inhibition of IL-13 induced STAT6 phosphorylation.

[6] = tested on: IL-13 induced pSTAT6 in lung tissue; assay: Murine model of IL-13 induced pSTAT6 induction in lung tissue; assay type: in vivo; conditions: mouse lung, oral aspiration 1 mg/mL 50 μL, IL-13 challenge 4 h post dose, pSTAT6 at 5 hours
Procedure: IL-13 is an important cytokine underlying the pathophysiology of asthma (Kudlacz et al. Eur. J. Pharmacol, 2008, 582, 154-161). IL-13 binds to cell surface receptors activating members of the Janus family of kinases (JAK) which then phosphorylate STAT6 and subsequently activates further transcription pathways. In the described model, a dose of IL-13 was delivered locally into the lungs of mice to induce the phosphorylation of STAT6 (pSTAT6) which is then measured as the endpoint.
Adult balb/c mice from Harlan were used in the assay. On the day of study, animals were lightly anesthetized with isoflurane and administered either vehicle or test compound (1 mg/mL, 50 μL total volume over several breaths) via oral aspiration. Animals were placed in lateral recumbency post dose and monitored for full recovery from anesthesia before being returned to their home cage. Four hours later, animals were once again briefly anesthetized and challenged with either vehicle or IL-13 (0.03 μg total dose delivered, 50 μL total volume) via oral aspiration before being monitored for recovery from anesthesia and returned to their home cage. One hour after vehicle or IL-13 administration, lungs were collected for both pSTAT6 detection using an anti-pSTAT6 ELISA (rabbit mAb capture/coating antibody; mouse mAb detection/report antibody: anti-pSTAT6-pY641; secondary antibody: anti-mouse IgG-HRP) and analyzed for total drug concentration as described above in Assay 3.
Selected compounds of the invention were tested in the assay. Activity in the model is evidenced by a decrease in the level of pSTAT6 present in the lungs of treated animals at 5 hours compared to the vehicle treated, IL-13 challenged control animals. The difference between the control animals which were vehicle-treated, IL-13 challenged and the control animals which were vehicle-treated, vehicle challenged dictated the 0% and 100% inhibitory effect, respectively, in any given experiment.

[7] = Pharmacokinetics in plasma and lung in mouse; assay type: in vivo; conditions: oral aspiration, ratio of lung exposure to plasma exposure
[8] = tested on: alternaria-induced BALF eosinophils; assay: Murine model of Alternaria alternata-induced eosinophilic inflammation of the lung; assay type: in vivo; conditions: mouse, oropharyngeal aspiration, 48 h after alternaria challenge, maximum statistically significant percent inhibition
Procedure: Airway eosinophilia is a hallmark of human asthma. Alternaria alternata is a fungal aeroallergen that can exacerbate asthma in humans and induces eosinophilic inflammation in the lungs of mice (Havaux et al. Clin Exp Immunol. 2005 February; 139(2):179-88).
Seven- to nine-week old male C57 mice from Taconic were used in the study. On the day of study, animals were lightly anesthetized with isoflurane and administered either vehicle or test compound (0.03-1.0 mg/mL, 50 μL total volume over several breaths) via oropharyngeal aspiration. Animals were placed in lateral recumbency post dose and monitored for full recovery from anesthesia before being returned to their home cage. One hour later, animals were once again briefly anesthetized and challenged with either vehicle or alternaria extract (200 ug total extract delivered, 50 μL total volume) via oropharyngeal aspiration before being monitored for recovery from anesthesia and returned to their home cage. Forty-eight hours after alternaria administration, bronchoalveolar lavage fluid (BALF) was collected and eosinophils were counted in the BALF using the Advia 120 Hematology System (Siemens).
Activity in the model is evidenced by a decrease in the level of eosinophils present in the BALF of treated animals at forty-eight hours compared to the vehicle treated, alternaria challenged control animals. Data are expressed as percent inhibition of the vehicle treated, alternaria challenged BALF eosinophils response. To calculate percent inhibition, the number of BALF eosinophils for each condition is converted to percent of the average vehicle treated, alternaria challenged BALF eosinophils and subtracted from one-hundred percent.

JAK1, sequence (P23458 whole entry): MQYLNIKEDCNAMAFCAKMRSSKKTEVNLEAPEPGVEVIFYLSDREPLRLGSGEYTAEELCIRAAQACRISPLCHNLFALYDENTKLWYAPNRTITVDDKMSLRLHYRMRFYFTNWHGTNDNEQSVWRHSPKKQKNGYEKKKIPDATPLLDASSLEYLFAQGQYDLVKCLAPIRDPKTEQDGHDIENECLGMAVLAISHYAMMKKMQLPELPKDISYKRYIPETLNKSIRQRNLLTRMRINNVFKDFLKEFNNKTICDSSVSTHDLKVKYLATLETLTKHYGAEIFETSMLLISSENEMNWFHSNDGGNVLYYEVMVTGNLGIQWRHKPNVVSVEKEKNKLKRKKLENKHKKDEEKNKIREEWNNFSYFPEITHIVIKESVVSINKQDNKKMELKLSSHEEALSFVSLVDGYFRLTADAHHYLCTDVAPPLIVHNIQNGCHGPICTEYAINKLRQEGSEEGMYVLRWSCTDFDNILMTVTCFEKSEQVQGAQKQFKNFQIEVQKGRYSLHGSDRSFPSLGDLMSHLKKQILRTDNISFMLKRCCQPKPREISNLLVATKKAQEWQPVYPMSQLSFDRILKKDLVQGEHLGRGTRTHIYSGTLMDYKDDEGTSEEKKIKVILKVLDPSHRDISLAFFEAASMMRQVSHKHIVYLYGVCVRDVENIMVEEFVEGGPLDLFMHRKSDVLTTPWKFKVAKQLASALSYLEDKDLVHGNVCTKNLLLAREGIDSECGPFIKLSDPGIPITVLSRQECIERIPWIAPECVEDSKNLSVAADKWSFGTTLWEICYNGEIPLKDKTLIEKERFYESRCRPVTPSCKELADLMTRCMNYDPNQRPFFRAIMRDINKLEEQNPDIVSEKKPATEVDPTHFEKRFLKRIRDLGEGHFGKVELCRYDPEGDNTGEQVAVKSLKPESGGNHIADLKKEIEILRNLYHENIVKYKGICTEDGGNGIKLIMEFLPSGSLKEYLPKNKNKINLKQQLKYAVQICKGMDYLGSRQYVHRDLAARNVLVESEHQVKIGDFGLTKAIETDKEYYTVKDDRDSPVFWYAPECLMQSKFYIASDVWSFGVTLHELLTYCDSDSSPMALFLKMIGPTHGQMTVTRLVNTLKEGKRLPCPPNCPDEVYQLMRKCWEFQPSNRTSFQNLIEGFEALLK
JAK3, sequence (P52333 whole entry): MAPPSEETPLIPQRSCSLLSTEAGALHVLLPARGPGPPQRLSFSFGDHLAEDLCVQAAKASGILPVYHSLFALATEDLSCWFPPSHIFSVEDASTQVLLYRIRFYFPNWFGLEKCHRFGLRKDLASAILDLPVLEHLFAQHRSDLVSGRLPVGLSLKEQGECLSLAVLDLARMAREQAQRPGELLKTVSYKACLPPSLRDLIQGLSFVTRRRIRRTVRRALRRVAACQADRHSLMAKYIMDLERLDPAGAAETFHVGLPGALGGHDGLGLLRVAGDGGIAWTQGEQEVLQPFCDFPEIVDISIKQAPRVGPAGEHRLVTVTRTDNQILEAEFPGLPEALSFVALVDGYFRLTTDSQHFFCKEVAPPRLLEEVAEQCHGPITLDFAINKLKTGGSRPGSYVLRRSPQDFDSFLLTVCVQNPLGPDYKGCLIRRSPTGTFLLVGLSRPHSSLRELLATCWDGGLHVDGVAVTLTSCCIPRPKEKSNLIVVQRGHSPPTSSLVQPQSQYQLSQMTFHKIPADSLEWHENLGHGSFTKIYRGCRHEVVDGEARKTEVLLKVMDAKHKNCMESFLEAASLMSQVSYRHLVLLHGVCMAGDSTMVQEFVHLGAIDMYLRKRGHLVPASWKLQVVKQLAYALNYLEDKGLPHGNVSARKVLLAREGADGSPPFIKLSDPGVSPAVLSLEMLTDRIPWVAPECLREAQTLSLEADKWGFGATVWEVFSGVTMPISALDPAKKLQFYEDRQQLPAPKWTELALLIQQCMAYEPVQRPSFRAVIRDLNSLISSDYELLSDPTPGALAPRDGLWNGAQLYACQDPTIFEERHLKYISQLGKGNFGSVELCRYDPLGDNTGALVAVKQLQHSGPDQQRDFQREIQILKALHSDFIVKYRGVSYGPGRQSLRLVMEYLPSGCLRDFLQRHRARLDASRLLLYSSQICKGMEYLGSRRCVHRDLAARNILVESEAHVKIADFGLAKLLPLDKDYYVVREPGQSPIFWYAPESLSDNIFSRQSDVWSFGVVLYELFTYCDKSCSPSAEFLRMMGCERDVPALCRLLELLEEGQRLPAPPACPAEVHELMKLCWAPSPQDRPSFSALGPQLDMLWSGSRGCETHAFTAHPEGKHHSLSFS
Tyk2, sequence (P29597 whole entry): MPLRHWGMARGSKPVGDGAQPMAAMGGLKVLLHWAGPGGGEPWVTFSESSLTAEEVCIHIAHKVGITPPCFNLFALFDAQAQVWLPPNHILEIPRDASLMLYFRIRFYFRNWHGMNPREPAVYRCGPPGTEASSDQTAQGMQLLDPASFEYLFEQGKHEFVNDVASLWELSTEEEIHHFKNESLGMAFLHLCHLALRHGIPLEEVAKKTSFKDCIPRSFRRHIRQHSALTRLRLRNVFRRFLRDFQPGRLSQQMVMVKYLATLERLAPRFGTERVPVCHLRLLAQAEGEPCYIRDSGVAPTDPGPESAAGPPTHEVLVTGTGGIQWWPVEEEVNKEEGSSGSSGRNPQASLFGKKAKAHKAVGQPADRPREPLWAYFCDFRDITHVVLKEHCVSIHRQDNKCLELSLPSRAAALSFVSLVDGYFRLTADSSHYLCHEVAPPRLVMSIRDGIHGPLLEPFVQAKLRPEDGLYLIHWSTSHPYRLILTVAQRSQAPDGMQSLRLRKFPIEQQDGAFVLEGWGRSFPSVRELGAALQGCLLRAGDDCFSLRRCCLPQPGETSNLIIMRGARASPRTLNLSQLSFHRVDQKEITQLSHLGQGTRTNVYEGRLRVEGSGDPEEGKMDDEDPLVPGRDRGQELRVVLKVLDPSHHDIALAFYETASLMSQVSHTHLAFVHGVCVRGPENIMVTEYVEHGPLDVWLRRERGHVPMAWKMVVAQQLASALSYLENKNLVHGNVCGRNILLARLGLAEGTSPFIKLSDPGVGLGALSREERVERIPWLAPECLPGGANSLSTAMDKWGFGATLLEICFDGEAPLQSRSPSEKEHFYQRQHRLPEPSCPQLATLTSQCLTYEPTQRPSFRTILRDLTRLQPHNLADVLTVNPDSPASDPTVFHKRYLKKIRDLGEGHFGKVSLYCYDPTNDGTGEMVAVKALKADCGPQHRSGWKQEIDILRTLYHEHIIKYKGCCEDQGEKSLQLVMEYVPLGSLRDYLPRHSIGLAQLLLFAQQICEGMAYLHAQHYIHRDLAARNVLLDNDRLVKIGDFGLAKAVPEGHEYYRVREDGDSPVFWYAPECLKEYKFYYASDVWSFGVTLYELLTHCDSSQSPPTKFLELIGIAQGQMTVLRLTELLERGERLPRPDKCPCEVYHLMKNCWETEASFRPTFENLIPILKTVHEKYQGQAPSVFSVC
JAK2, sequence (O60674 whole entry): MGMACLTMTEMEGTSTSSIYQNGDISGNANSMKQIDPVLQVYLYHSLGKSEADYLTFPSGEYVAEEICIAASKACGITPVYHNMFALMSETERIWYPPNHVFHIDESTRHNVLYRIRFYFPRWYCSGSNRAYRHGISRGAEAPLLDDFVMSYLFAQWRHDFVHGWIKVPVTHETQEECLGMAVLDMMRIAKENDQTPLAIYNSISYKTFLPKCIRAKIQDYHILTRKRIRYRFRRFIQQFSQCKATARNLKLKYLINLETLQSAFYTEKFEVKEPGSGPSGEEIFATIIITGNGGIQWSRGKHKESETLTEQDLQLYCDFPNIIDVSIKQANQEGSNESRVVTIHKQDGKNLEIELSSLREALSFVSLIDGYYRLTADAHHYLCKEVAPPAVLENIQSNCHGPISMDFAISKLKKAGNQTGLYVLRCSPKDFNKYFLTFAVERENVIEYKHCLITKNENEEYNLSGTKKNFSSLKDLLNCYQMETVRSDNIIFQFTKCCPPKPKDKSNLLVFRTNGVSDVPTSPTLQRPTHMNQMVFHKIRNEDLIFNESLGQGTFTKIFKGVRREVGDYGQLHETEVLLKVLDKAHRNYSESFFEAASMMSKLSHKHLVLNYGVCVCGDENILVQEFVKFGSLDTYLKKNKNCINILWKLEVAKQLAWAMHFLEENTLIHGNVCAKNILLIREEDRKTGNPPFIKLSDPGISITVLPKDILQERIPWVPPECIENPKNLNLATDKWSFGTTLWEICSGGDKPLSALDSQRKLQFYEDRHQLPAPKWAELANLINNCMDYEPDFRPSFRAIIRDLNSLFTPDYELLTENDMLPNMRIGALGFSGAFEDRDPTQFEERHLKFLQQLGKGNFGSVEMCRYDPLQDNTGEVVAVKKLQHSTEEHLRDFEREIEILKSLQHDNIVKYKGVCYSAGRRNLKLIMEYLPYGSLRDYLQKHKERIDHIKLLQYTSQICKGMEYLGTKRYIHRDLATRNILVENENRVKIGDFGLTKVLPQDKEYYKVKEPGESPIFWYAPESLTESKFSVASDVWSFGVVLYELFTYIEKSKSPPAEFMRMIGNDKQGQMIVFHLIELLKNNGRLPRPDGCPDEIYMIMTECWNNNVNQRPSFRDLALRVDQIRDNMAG

Row | SMILES | Ki [1] | Ki [2] | Ki [3] | Ki [4] | IC50 [5] | pSTAT6 inhibition Assay 4 [6] | Lung to Plasma ratio Assay 3 [7] | Percent Inhibition of Alternaria-induced BALF Eosinophils [8]
1 | CCc1cc(O)c(F)cc1-c1ccc2c(-c3nc4c([nH]3)CNC(C(=O)N3CCN(C(C)C)CC3)C4)n[nH]c2c1 (centres unmarked) [Example 1-2] | 0.03 nM | 0.05 nM | 0.16 nM | 0.08 nM | 7.8 nM | – | – | –
2 | CCc1cc(O)c(F)cc1-c1ccc2c(-c3nc4c([nH]3)CN(C)C(C(=O)N3CCN(C(C)C)CC3)C4)n[nH]c2c1 (centres unmarked) [Example 1-12] | – | – | – | – | 5.9 nM | – | – | –
3 | CCc1cc(O)c(F)cc1-c1ccc2c(-c3nc4c([nH]3)CN(C)[C@H](C(=O)N3CCN(C)C[C@@H]3C)C4)n[nH]c2c1 [Example 2-15] | – | – | – | – | 4 nM | B (B represents between 40% and 60% inhibition) | – | –
4 | CCc1cc(O)c(F)cc1-c1ccc2c(-c3nc4c([nH]3)CN(C(C)C)[C@H](C(=O)N3CCCN(C)CC3)C4)n[nH]c2c1 [Example 5, (S)-(2-(6-(2-ethyl-5-fluoro-4-hydroxyphenyl)-1H-indazol-3-yl)-5-isopropyl-4,5,6,7-tetrahydro-3H-imidazo[4,5-c]pyridin-6-yl)(4-methyl-1,4-diazepan-1-yl)methanone] | – | 0.08 nM | 0.2 nM | – | 6.5 nM | B (B represents between 40% and 60% inhibition) | B (B denotes a ratio between 50 and 100) | –
5 | CCc1cc(O)c(F)cc1-c1ccc2c(-c3nc4c([nH]3)CN(C)[C@H](C(=O)N3CCN(CCO)C[C@H]3C)C4)n[nH]c2c1 [Example 6, ((S)-2-(6-(2-ethyl-5-fluoro-4-hydroxyphenyl)-1H-indazol-3-yl)-5-methyl-4,5,6,7-tetrahydro-3H-imidazo[4,5-c]pyridin-6-yl)((R)-4-(2-hydroxyethyl)-2-methyl-piperazin-1-yl)methanone] | – | 0.1 nM | – | – | 4.2 nM | B (B represents between 40% and 60% inhibition) | – | 73
6 | CCCN1Cc2[nH]c(-c3n[nH]c4cc(-c5cc(F)c(O)cc5CC)ccc34)nc2C[C@H]1C(=O)N1CCN(CCO)CC1 [Example 7, (S)-(2-(6-(2-ethyl-5-fluoro-4-hydroxyphenyl)-1H-indazol-3-yl)-5-propyl-4,5,6,7-tetrahydro-3H-imidazo[4,5-c]pyridin-6-yl)(4-(2-hydroxyethyl)piperazin-1-yl)methanone] | – | 0.06 nM | – | – | 5.4 nM | B (B represents between 40% and 60% inhibition) | – | 91
7 | CCCN1Cc2[nH]c(-c3n[nH]c4cc(-c5cc(F)c(O)cc5CC)ccc34)nc2C[C@@H]1C(=O)N1CC[C@H](N(C)C)C1 [Example 9-21] | 0.03 nM | 0.06 nM | – | 1 nM | 4 nM | B (B represents between 40% and 60% inhibition) | – | –
8 | CCc1cc(O)c(F)cc1-c1ccc2c(-c3nc4c([nH]3)CN(CC)C(C(=O)N(C)CCN(CC)CC)C4)n[nH]c2c1 (centres unmarked) [Example 12-8] | – | – | – | – | – | A (A represents between 60% and 80% inhibition) | – | –
9 | CCc1cc(O)c(F)cc1-c1ccc2c(-c3nc4c([nH]3)CN(CC)[C@@H](C(=O)N(C)CCN(CC)CC)C4)n[nH]c2c1 [Example 12-14, (R)—N-(2-(diethylamino)ethyl)-5-ethyl-2-(6-(2-ethyl-5-fluoro-4-hydroxyphenyl)-1H-indazol-3-yl)-N-methyl-4,5,6,7-tetrahydro-3H-imidazo[4,5-c]pyridine-6-carboxamide] | – | 0.06 nM | 0.2 nM | – | 3.3 nM | B (B represents between 40% and 60% inhibition) | B (B denotes a ratio between 50 and 100) | –
10 | CCCN1Cc2[nH]c(-c3n[nH]c4cc(-c5cc(F)c(O)cc5CC)ccc34)nc2CC1C(=O)N(C)C1CCN(C)CC1 (centres unmarked) [Example 13-2] | – | – | – | – | – | A (A represents between 60% and 80% inhibition) | A (A denotes a ratio 100-200) | –
11 | CCCN1Cc2[nH]c(-c3n[nH]c4cc(-c5cc(F)c(O)cc5CC)ccc34)nc2CC1C(=O)N(C)C1CCN(C)CC1 (centres unmarked) [Example 13-5] | – | – | – | – | – | C (C represents between 25% and 40% inhibition) | A (A denotes a ratio 100-200) | –
12 | CCCN1Cc2[nH]c(-c3n[nH]c4cc(-c5cc(F)c(O)cc5CC)ccc34)nc2CC1C(=O)N(C)C1CCN(C)CC1 (centres unmarked) [Example 13-6] | – | – | – | – | – | B (B represents between 40% and 60% inhibition) | B (B denotes a ratio between 50 and 100) | –
